Results on 1 substance are retold here after patent US7054685B2, “Method and apparatus for reducing electroporation-mediated muscle reaction and pain response” (Genetronics, Inc., priority 1999, dated 2006).

For data set [1] the following is noted: octanol and water; cited from earlier work.
For a further data set, the system named is HEp-2 tumors. Put plainly: Electroporation therapy of HEp-2 tumors implanted subcutaneously in nude mice (intratumoral drug plus bipolar square pulses). The class given is in vivo, BALB/c A nu/nu mice. Here is the method: BALB/c A nu/nu mice were surgically implanted with HEp-2 tumors in a subcutaneous sac made in the right flank of nude mice. The tumors 34 were allowed to grow and were treated when their average size was about 80 mm^3. The drug, bleomycin, 0.5 units dissolved in 0.15 ml of saline, was injected in each mouse intratumorally using a 30 gauge needle. The drug was injected very slowly at the tumor base and the needle direction rotated (fanning technique) for uniform drug distribution in the tumor 34. The mice in the control were only pulsed D−E+; D=Drug, E=Electric field, +/−denote presence or absence, respectively) while those in the treated group were pulsed and received drug (D+E+). A time lapse of 10+/−1 minute was maintained between the drug injection and the application of electric pulse to allow bleomycin to spread uniformly throughout the tumor 34. The electrical pulses, generated by the prototype bipolar square wave pulse generator, were delivered to the tumor 34 through a 6-needle array (see for example, U.S. Pat. No. 5,702,359 herein incorporated by reference), inserted to the depth of the tumor 34. […] The mice in both the control and pulse-treated groups were monitored every day for mortality and sign of any other disease.
FIG. 16 illustrates the results for the experimental and control groups.

Take bleomycin: the “log P” value in data set [1] is “very negative”. Moreover, the tumor volume result in the data set with HEp-2 tumors (D+E+ group, versus substantial increase in control group D-E+) is reported as “decreased”. Further, in the data set with HEp-2 tumors (D+E+ group, bleomycin 0.5 units in 0.15 ml saline intratumorally, bipolar square pulses via 6-needle array 10+/-1 min later, 65 days following treatment, 7/8 mice), the “treated mice with complete tumor regression” value is 87.5%. The “treated mice with partial regression” value with HEp-2 tumors (D+E+ group, bleomycin 0.5 units intratumorally plus bipolar square pulses, 65 days following treatment, 1/8 mice) was 12.5%. In addition, in the data set on HEp-2 tumors (nearly all the mice treated by both the drug (D) and the pulse (E)), the “tumor reaction to electroporation therapy” value is “severe early edema, and later necrosis of the tumor”. Moreover, in the data set on HEp-2 tumors (the 1/8 D+E+ mouse with partial regression), the “extent of partial tumor regression” value is reported as more than 80%.
